{"source": "patent US9725445B2", "about": "“Cycloalkyl nitrile pyrazolo pyridones as Janus kinase inhibitors” (Merck Sharp & Dohme Corp., priority 2013, dated 2017)", "key": {"JAK2": {"target": "JAK2 (Homo sapiens (Human), UniProt O60674)", "sequence (O60674 849-1124)": "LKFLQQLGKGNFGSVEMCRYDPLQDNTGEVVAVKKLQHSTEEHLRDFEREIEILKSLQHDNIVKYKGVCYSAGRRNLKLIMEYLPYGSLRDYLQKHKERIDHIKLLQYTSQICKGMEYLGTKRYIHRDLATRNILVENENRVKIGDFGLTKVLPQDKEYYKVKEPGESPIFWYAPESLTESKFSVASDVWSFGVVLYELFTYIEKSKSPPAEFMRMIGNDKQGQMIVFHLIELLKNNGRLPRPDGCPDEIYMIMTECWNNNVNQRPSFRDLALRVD", "assay": "Jak biochemical HTRF assay, JAK2", "conditions": "HTRF biochemical assay, recombinant GST-tagged catalytic domain; read-out: JAK2 IC50"}, "JAK1": {"target": "JAK1 (Homo sapiens (Human), UniProt P23458)", "sequence (P23458 875-1153)": "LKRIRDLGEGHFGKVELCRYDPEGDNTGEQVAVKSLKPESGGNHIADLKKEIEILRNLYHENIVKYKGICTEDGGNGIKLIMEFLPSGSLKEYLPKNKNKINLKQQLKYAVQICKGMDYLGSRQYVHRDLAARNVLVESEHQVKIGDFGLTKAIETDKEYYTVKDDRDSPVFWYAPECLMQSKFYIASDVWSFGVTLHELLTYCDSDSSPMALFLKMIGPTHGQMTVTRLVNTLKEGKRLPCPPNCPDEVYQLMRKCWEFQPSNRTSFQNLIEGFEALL", "assay": "Jak biochemical HTRF assay, JAK1", "conditions": "HTRF biochemical assay, recombinant GST-tagged catalytic domain; read-out: JAK1 IC50"}}, "note": "pIC50: −log10 of the molar value.", "data": [{"compound": "Cc1cc(Nc2nn([C@@H]3CCCCC[C@H]3C#N)c3cc[nH]c(=O)c23)ccc1C(O)C(F)(F)F", "note": "(single isomer, unassigned) [Example 15-67, (1R,2R or 1S,2S)-2-[3-({3-methyl-4-[(1S or 1R)-2,2,2-trifluoro-1-hydroxyethyl]phenyl}amino)-4-oxo-4,5-dihydro-1H-pyrazolo[4,3-c]pyridin-1-yl]cycloheptanecarbonitrile]", "values": [{"measurement": "pIC50", "setting": "JAK2", "result": 8.41}, {"measurement": "pIC50", "setting": "JAK1", "result": 9.42}]}, {"compound": "C[C@H](NCC(F)(F)F)c1ccc(Nc2nn([C@H]3CCCC[C@@H]3C#N)c3cc[nH]c(=O)c23)cc1", "note": "[Example 3-73, (1S,2S)-2-{4-oxo-3-[(4-{(1S)-1-[(2,2,2-trifluoroethyl)amino]ethyl}phenyl)amino]-4,5-dihydro-1H-pyrazolo[4,3-c]pyridin-1-yl}cyclohexanecarbonitrile]", "values": [{"measurement": "pIC50", "setting": "JAK2", "result": 9.35}, {"measurement": "pIC50", "setting": "JAK1", "result": 9.59}]}, {"compound": "N#C[C@H]1CCCC[C@@H]1n1nc(Nc2ccc(CN)cc2)c2c(=O)[nH]ccc21", "note": "[Example 6-5, (1S,2S)-2-(3-((4-(aminomethyl)phenyl)amino)-4-oxo-4,5-dihydro-1H-pyrazolo[4,3-c]pyridin-1-yl)cyclohexanecarbonitrile]", "values": [{"measurement": "pIC50", "setting": "JAK2", "result": 9.09}, {"measurement": "pIC50", "setting": "JAK1", "result": 9.34}]}, {"compound": "N#C[C@H]1CCCC[C@@H]1n1nc(Nc2cccc(CNC(=O)c3ncccn3)c2)c2c(=O)[nH]ccc21", "note": "[Example 3-17, N-[3-({1-[(1S,2S)-2-cyanocyclohexyl]-4-oxo-4,5-dihydro-1H-pyrazolo[4,3-c]pyridin-3-yl}amino)benzyl]pyrimidine-2-carboxamide]", "values": [{"measurement": "pIC50", "setting": "JAK2", "result": 8.24}, {"measurement": "pIC50", "setting": "JAK1", "result": 9.04}]}, {"compound": "N#C[C@@H]1C[C@@H](N2CCC2)CC[C@H]1n1nc(Nc2ccc(C(F)(F)F)cc2)c2c(=O)[nH]ccc21", "note": "[Example 5-9, (1R,2R,5S)-5-(azetidin-1-yl)-2-(4-oxo-3-((4-(trifluoromethyl)phenyl)amino)-4,5-dihydro-1H-pyrazolo[4,3-c]pyridin-1-yl)cyclohexanecarbonitrile]", "values": [{"measurement": "pIC50", "setting": "JAK2", "result": 6.18}, {"measurement": "pIC50", "setting": "JAK1", "result": 7.60}]}, {"compound": "CC(C)(C)OC(=O)NCc1cccc(Nc2nn([C@H]3CCCC[C@@H]3C#N)c3cc[nH]c(=O)c23)c1", "note": "[Example 3-16, tert-butyl [3-({1-[(1S,2S)-2-cyanocyclohexyl]-4-oxo-4,5-dihydro-1H-pyrazolo[4,3-c]pyridin-3-yl}amino)benzyl]carbamate]", "values": [{"measurement": "pIC50", "setting": "JAK2", "result": 8.48}, {"measurement": "pIC50", "setting": "JAK1", "result": 8.85}]}, {"compound": "CC(C)N1Cc2cc(Nc3nn([C@H]4CCCC[C@@H]4C#N)c4cc[nH]c(=O)c34)ccc2C1C", "note": "(single isomer, unassigned) [Example 19-2, (1S,2S)-2-(3-(((R or S)-2-isopropyl-1-methylisoindolin-5-yl)amino)-4-oxo-4,5-dihydro-1H-pyrazolo[4,3-c]pyridin-1-yl)cyclohexanecarbonitrile]", "values": [{"measurement": "pIC50", "setting": "JAK2", "result": 9.35}, {"measurement": "pIC50", "setting": "JAK1", "result": 9.33}]}, {"compound": "N#C[C@H]1CCCC[C@@H]1n1nc(Nc2ccc(S(=O)(=O)NCC3CC3)cc2)c2c(=O)[nH]ccc21", "note": "[Example 3-20, 4-({1-[(1S,2S)-2-cyanocyclohexyl]-4-oxo-4,5-dihydro-1H-pyrazolo[4,3-c]pyridin-3-yl}amino)-N-(cyclopropylmethyl)benzene-sulfonamide]", "values": [{"measurement": "pIC50", "setting": "JAK2", "result": 9.22}, {"measurement": "pIC50", "setting": "JAK1", "result": 9.89}]}, {"compound": "N#C[C@H]1CCCC[C@@H]1n1nc(Nc2ccc3c(c2)CN(CC2CCCC2)S3(=O)=O)c2c(=O)[nH]ccc21", "note": "[Example 3-65, (1S,2S)-2-(3-{[2-(cyclopentylmethyl)-1,1-dioxido-2,3-dihydro-1,2-benzisothiazol-5-yl]amino}-4-oxo-4,5-dihydro-1H-pyrazolo[4,3-c]pyridin-1-yl)cyclohexanecarbonitrile]", "values": [{"measurement": "pIC50", "setting": "JAK2", "result": 9.19}, {"measurement": "pIC50", "setting": "JAK1", "result": 9.92}]}, {"compound": "CCOC(=O)c1cnn(-c2ccc(Nc3nn([C@H]4CCCC[C@@H]4C#N)c4cc[nH]c(=O)c34)cc2C)c1", "note": "[Example 15-15, ethyl 1-[4-({1-[(1S,2S)-2-cyanocyclohexyl]-4-oxo-4,5-dihydro-1H-pyrazolo[4,3-c]pyridin-3-yl}amino)-2-methylphenyl]-1H-pyrazole-4-carboxylate]", "values": [{"measurement": "pIC50", "setting": "JAK2", "result": 8.23}, {"measurement": "pIC50", "setting": "JAK1", "result": 8.77}]}, {"compound": "N#C[C@H]1CCCC[C@@H]1n1nc(Nc2cccc(CN3CCOCC3)c2)c2c(=O)[nH]ccc21", "note": "[Example 3-33, (1S,2S)-2-(3-{[3-(morpholin-4-ylmethyl)phenyl]amino}-4-oxo-4,5-dihydro-1H-pyrazolo[4,3-c]pyridin-1-yl)cyclohexanecarbonitrile]", "values": [{"measurement": "pIC50", "setting": "JAK2", "result": 8.77}, {"measurement": "pIC50", "setting": "JAK1", "result": 8.89}]}, {"compound": "N#C[C@H]1C[C@H](N2CCC2)CC[C@@H]1n1nc(Nc2ccc(C(F)(F)F)cc2)c2c(=O)[nH]ccc21", "note": "[Example 5-7, (1S,2S,5R)-5-(azetidin-1-yl)-2-(4-oxo-3-((4-(trifluoromethyl)phenyl)amino)-4,5-dihydro-1H-pyrazolo[4,3-c]pyridin-1-yl)cyclohexanecarbonitrile]", "values": [{"measurement": "pIC50", "setting": "JAK2", "result": 7.22}, {"measurement": "pIC50", "setting": "JAK1", "result": 8.85}]}, {"compound": "N#C[C@H]1CCCC[C@@H]1n1nc(Nc2ccc(F)c(CN)c2)c2c(=O)[nH]ccc21", "note": "[Example 6-2, (1S,2S)-2-(3-((3-(aminomethyl)-4-fluorophenyl)amino)-4-oxo-4,5-dihydro-1H-pyrazolo[4,3-c]pyridin-1-yl)cyclohexanecarbonitrile]", "values": [{"measurement": "pIC50", "setting": "JAK2", "result": 8.64}, {"measurement": "pIC50", "setting": "JAK1", "result": 9.12}]}, {"compound": "Cc1cc(Nc2nn([C@H]3CCCC[C@@H]3C#N)c3cc[nH]c(=O)c23)ccc1C(C)(C)n1ccnn1", "note": "[Example 15-33, (1S,2S)-2-[3-({3-methyl-4-[1-methyl-1-(1H-1,2,3-triazol-1-yl)ethyl]phenyl}amino)-4-oxo-4,5-dihydro-1H-pyrazolo[4,3-c]pyridin-1-yl]cyclohexanecarbonitrile]", "values": [{"measurement": "pIC50", "setting": "JAK2", "result": 9.77}, {"measurement": "pIC50", "setting": "JAK1", "result": 9.77}]}, {"compound": "CC(=O)N1Cc2ccc(Nc3nn([C@H]4CCCC[C@@H]4C#N)c4cc[nH]c(=O)c34)cc2C1", "note": "[Example 15-26, (1S,2S)-2-{3-[(2-acetyl-2,3-dihydro-1H-isoindol-5-yl)amino]-4-oxo-4,5-dihydro-1H-pyrazolo[4,3-c]pyridin-1-yl}cyclohexanecarbonitrile]", "values": [{"measurement": "pIC50", "setting": "JAK2", "result": 9.04}, {"measurement": "pIC50", "setting": "JAK1", "result": 9.64}]}, {"compound": "N#C[C@H]1CCC[C@@H]1n1nc(Nc2ccc(C(N)C(F)(F)F)cc2)c2c(=O)[nH]ccc21", "note": "(single isomer, unassigned) [Example 3-137, (1S,2S)-2-[3-({4-[(1S or 1R)-1-amino-2,2,2-trifluoroethyl]phenyl}amino)-4-oxo-4,5-dihydro-1H-pyrazolo[4,3-c]pyridin-1-yl]cyclopentanecarbonitrile]", "values": [{"measurement": "pIC50", "setting": "JAK2", "result": 9.23}, {"measurement": "pIC50", "setting": "JAK1", "result": 9.66}]}, {"compound": "CC1(C)OCC(C)(c2cccc(Nc3nn([C@H]4CCCC[C@@H]4C#N)c4cc[nH]c(=O)c34)c2)O1", "note": "(stereo partly drawn) [Example 3-38, (1S,2S)-2-{4-Oxo-3-[3-(2,2,4-trimethyl-[1,3]dioxolan-4-yl)-phenylamino]-4,5-dihydro-pyrazolo[4,3-c]pyridin-1-yl}-cyclohexanecarbonitrile]", "values": [{"measurement": "pIC50", "setting": "JAK2", "result": 7.80}, {"measurement": "pIC50", "setting": "JAK1", "result": 8.30}]}, {"compound": "N#C[C@H]1CCC[C@@H]1n1nc(Nc2ccc(C(N)C(F)(F)F)cc2)c2c(=O)[nH]ccc21", "note": "(single isomer, unassigned) [Example 3-103, (1S,2S)-2-[3-({4-[(1R or 1S)-1-amino-2,2,2-trifluoroethyl]phenyl}amino)-4-oxo-4,5-dihydro-1H-pyrazolo[4,3-c]pyridin-1-yl]cyclopentanecarbonitrile]", "values": [{"measurement": "pIC50", "setting": "JAK2", "result": 9.15}, {"measurement": "pIC50", "setting": "JAK1", "result": 9.55}]}, {"compound": "Cc1cc(Nc2nn([C@H]3CCCC[C@@H]3C#N)c3cc[nH]c(=O)c23)ccc1C(C)(C)n1nccn1", "note": "[Example 15-32, (1S,2S)-2-[3-({3-methyl-4-[1-methyl-1-(2H-1,2,3-triazol-2-yl)ethyl]phenyl}amino)-4-oxo-4,5-dihydro-1H-pyrazolo[4,3-c]pyridin-1-yl]cyclohexanecarbonitrile]", "values": [{"measurement": "pIC50", "setting": "JAK2", "result": 9.82}, {"measurement": "pIC50", "setting": "JAK1", "result": 9.59}]}, {"compound": "N#C[C@H]1CCCC[C@@H]1n1nc(Nc2ccc(-c3ccno3)cc2)c2c(=O)[nH]ccc21", "note": "[Example 15-5, (1S,2S)-2-{3-[(4-isoxazol-5-ylphenyl)amino]-4-oxo-4,5-dihydro-1H-pyrazolo[4,3-c]pyridin-1-yl}cyclohexanecarbonitrile]", "values": [{"measurement": "pIC50", "setting": "JAK2", "result": 8.49}, {"measurement": "pIC50", "setting": "JAK1", "result": 9.49}]}, {"compound": "CC(C)CN1Cc2cc(Nc3nn([C@H]4CCCC[C@@H]4C#N)c4cc[nH]c(=O)c34)ccc2S1(=O)=O", "note": "[Example 3-62, (1S,2S)-2-(3-{[2-(2-methylpropyl)-1,1-dioxido-2,3-dihydro-1,2-benzisothiazol-5-yl]amino}-4-oxo-4,5-dihydro-1H-pyrazolo[4,3-c]pyridin-1-yl)cyclohexanecarbonitrile]", "values": [{"measurement": "pIC50", "setting": "JAK2", "result": 9.39}, {"measurement": "pIC50", "setting": "JAK1", "result": 10.08}]}, {"compound": "CC(C)N1Cc2cc(Nc3nn([C@H]4CCCC[C@@H]4C#N)c4cc[nH]c(=O)c34)ccc2C1C", "note": "(single isomer, unassigned) [Example 19-1, (1S,2S)-2-(3-(((S or R)-2-isopropyl-1-methylisoindolin-5-yl)amino)-4-oxo-4,5-dihydro-1H-pyrazolo[4,3-c]pyridin-1-yl)cyclohexanecarbonitrile]", "values": [{"measurement": "pIC50", "setting": "JAK2", "result": 9.05}, {"measurement": "pIC50", "setting": "JAK1", "result": 9.04}]}, {"compound": "N#C[C@H]1CCCC[C@@H]1n1nc(Nc2ccc3c(c2)CN(CC(F)(F)F)C3=O)c2c(=O)[nH]ccc21", "note": "[Example 3-10, (1S,2S)-2-(4-oxo-3-{[1-oxo-2-(2,2,2-trifluoroethyl)-2,3-dihydro-1H-isoindol-5-yl]amino}-4,5-dihydro-1H-pyrazolo[4,3-c]pyridin-1-yl)cyclohexanecarbonitrile]", "values": [{"measurement": "pIC50", "setting": "JAK2", "result": 9.37}, {"measurement": "pIC50", "setting": "JAK1", "result": 9.92}]}, {"compound": "N#C[C@H]1CCCC[C@@H]1n1nc(Nc2cccc(Cn3nccn3)c2)c2c(=O)[nH]ccc21", "note": "[Example 3-28, (1S,2S)-2-(4-oxo-3-{[3-(2H-1,2,3-triazol-2-ylmethyl)phenyl]amino}-4,5-dihydro-1H-pyrazolo[4,3-c]pyridin-1-yl)cyclohexanecarbonitrile]", "values": [{"measurement": "pIC50", "setting": "JAK2", "result": 9.03}, {"measurement": "pIC50", "setting": "JAK1", "result": 9.00}]}, {"compound": "N#C[C@H]1CCCC[C@@H]1n1nc(Nc2ccc3c(c2)CN(CC(F)(F)F)S3(=O)=O)c2c(=O)[nH]ccc21", "note": "[Example 3-58, (1S,2S)-2-(3-{[1,1-dioxido-2-(2,2,2-trifluoroethyl)-2,3-dihydro-1,2-benzisothiazol-5-yl]amino}-4-oxo-4,5-dihydro-1H-pyrazolo[4,3-c]pyridin-1-yl)cyclohexanecarbonitrile]", "values": [{"measurement": "pIC50", "setting": "JAK2", "result": 9.24}, {"measurement": "pIC50", "setting": "JAK1", "result": 10.30}]}]}
